≈ marks a conversion by molar mass, not a printed value. Where two headings read alike, the source gives them in different places.
Legend:
[1] = Solubility of BETi1 in solutions of hydroxypropyl-β-cyclodextrin in saline (HPLC); type: physicochemical; settings: for solubility: aqueous with cosolvent or surfactant or cyclodextrin, thermodynamic from solid, 25° C., HPLC, read-out: Approximate solubility
Procedure: Saline is prepared by dissolving 0.9% of NaCl in water. 10% w/w or 20% w/w of hydroxypropyl-β-cyclodextrin (2HP-β-CD) is added to saline, sonicated for 1 minute, and mixed using magnetic stirrer until complete dissolution of 2HP-β-CD and a clear solution is obtained. Sufficient BETi1 is added to each 2HP-β-CD solution such that not all BETi1 is completely dissolved. The mixture is stirred with a magnetic stirrer at ambient conditions overnight (for at least 16 hours). The saturated samples, still containing solid phase, are filtered through a 0.45 μm filter and the filtrate is analyzed by HPLC.

[2] = system: CXCL10, IL17α, IL22, IL36γ, CCL20, SerpinB4 gene expression in Th17 stimulated human skin; experiment: Th17 stimulated human skin explants, RT-qPCR of biomarkers; type: cell-based; settings: for inhibition at 10 µM: Homo sapiens, calculated to Th17 stimulated control, three skin donors
From the text: Human skin biopsy tissue was stimulated to induce a Th17 immuno-phenotype using a method derived from Feghali-Bostwick et al. Induction of a Th17 phenotype in human skin—a mimic of dermal inflammatory diseases, Methods and Protocols, 2, 45 (2019). The pharmacodynamic assay described therein involves a similar paradigm to elicit a Th2 response and is used to evaluate the therapeutic potential of the active compounds (e.g., BETi1; and
Freshly excised healthy human skin tissue from abdominoplasties is defatted, cleaned and sectioned into 7 mm biopsies. The biopsies are placed in Transwell® inserts with the epidermis apical and exposed to air and the dermis submerged in media in the basal chamber. The biopsies are pre-treated overnight at 37° C., 5% CO2 with different compounds and controls added to the media in the basal chamber.
The next day, contents of the basal chamber is replaced with fresh media containing the test compound (listed below) and a stimulation cocktail for either Th2 inflammation (proprietary of service provider cocktail) or Th17 inflammation (mix of antibodies against CD3, CD28, IL-4, IFNγ and recombinant IL-1β, IL-6, IL-21, TGF-β). The biopsies are incubated at 37° C., 5% CO2 for a further 24 hrs.
A list of all the treatments is provided below: • 1. Untreated control (for both stimulations) • 2. Th2 stimulated control • 3. Th17 stimulated control • 4. Th2+BETia at 0.01, 0.04, 0.16, 0.63, 2.50, and 10 μM • 5. Th2+BETi1 at 0.01, 0.04, 0.16, 0.63, 2.50, and 10 μM • 6. Th2+Ruxolitinib at 0.01, 0.04, 0.16, 0.63, 2.50, and 10 μM • 7. Th2+betamethasone valerate 210 μM (equivalent to 0.01%) • 8. Th17+BETia at 10 μM • 9. Th17+BETi1 at 10 μM • 10. Th17+Ruxolitinib at 10 μM • 11. Th17+betamethasone valerate 210 μM (equivalent to 0.01%)
After harvesting, the biopsies are cut in half, and one half is homogenized and used for RNA extraction by standard methods and inflammatory pathways is assessed by RT-qPCR. The ability of BETi1 or BETia to inhibit the activity of up to six biomarkers per stimulation is reported as percent activity calculated to stimulated control and fold change in gene expression calculated to untreated control with respect to Th2 (IL4, IL13, IL31, CCL17, CCL26, CCL2) and Th17 (CXCL10, IL17α, IL22, IL36γ, CCL20, SerpinB4). Statistical analysis is performed on data sets from all 3 donors combined and compares the percent inhibition of each biomarker by each treatment calculated to its respective vehicle.
qPCR values were calculated using the relative quantification approach outlined by Livak, et al (2001) (Section 9, Reference 2). The Ct values (threshold cycle) defined as the fractional cycle number at which the amount of amplified target reaches a fixed threshold, were normalised to the Ct value of an internal biomarker or ‘housekeeping gene’ (GAPDH). The higher limit of detection was set at a Ct value of 40, and any target having not reached Ct by 40 cycles was set to this value. The delta Ct values (dt(Ct)) refers to the Ct of the gene of interest minus the Ct of the internal biomarker. The ddt(Ct) is the dt(Ct) value of the gene minus the average dt(Ct) value of the untreated samples. The ddt(Ct) is converted to power by the equation; =power(2,dt(Ct)). Fold change was calculated as ratio of the power of the gene of interest divided by the average power of the untreated samples. This normalizes the untreated samplers to a value of 1. For the comparison of multiple skin donors, the stimulated samples were normalized to 100% maximum activity (such to normalize variability between different skin donors). Percent activity was calculated as the percent increase or decrease in stimulation compared to the stimulated samples set at 100% maximum activity. Percent change was calculated as: Inhibition=(100−(avg % activity/stimulated)*100). Statistical analysis was performed using One-way ANOVA with Dunnett's Multiple Comparisons (non parametric). […]

Cn1cc(-c2cccc(O)c2Oc2ccccc2)c2cc[nH]c2c1=O [BETi1]
amount of BETi1 fully dissolved ([1]; 10% HP-b-CD in saline, room temperature): below 4.3 mg/mL
solubility ([1]; 10% w/w hydroxypropyl-β-cyclodextrin in saline, 2HP-β-CD - Saline (10%:90%)): 4340 µg/mL (≈ 13.1 mM)
solubility ([1]; 20% w/w hydroxypropyl-β-cyclodextrin in saline, 2HP-β-CD - Saline (20%:80%)): 8990 µg/mL (≈ 27 mM)
inhibition at 10 µM ([2]; read-out: % inhibition CXCL10): 95%
inhibition at 10 µM ([2]; read-out: % inhibition IL17α): 99.5%
inhibition at 10 µM ([2]; read-out: % inhibition IL36γ): 95%
inhibition of IL-17, IL-36 and CXCL10 release relative to vehicle control ([2]; Th17-stimulated human skin tissue): greater than 95%
